From US12685320B2, “Food processing oxidation treatment forumlations and methods” (Clean Chemistry, Inc., priority 2023, dated 2026)

Legend:
Salmonella spp. = test: Poultry chiller tank (pre-chiller and red water main chiller): Salmonella on inoculated poultry thighs; format: cell-based, S. Infantis, S. Typhimurium, S. Enteritidis; details: for Recovered average Log10 CFU/g: pH>8.5
Method: (§1) A standardized test was conducted to compare the antimicrobial efficacy, residual decay, and effect on solution pH of peracetate and peracetic acid in reducing Salmonella spp. on poultry as a processing method directed to control microbial growth or inactivate microorganisms in food products during processing to lower risk of foodborne pathogens or spoilage microorganisms. The objective of this study was to determine the efficacy of peracetate and peracetic acid treatments for reducing Salmonella spp. on poultry thighs in a treatment bath under conditions simulating pre-chiller and red water main chiller applications. To mimic these applications in a poultry processing facility, target concentrations were determined to be 150 ppm of either peracetate (as PAA equivalents) or peracetic acid in the simulated pre-chiller application and 75 ppm of either peracetate (as PAA equivalents) or peracetic acid in the simulated red water main chiller application. Both applications targeted a pH>8.5 to simulate the intentional alkalinity of chillers in poultry processing facilities.
(§2) The pH, temperature, and residual antimicrobial concentration (measured as either peracetate or peracetic acid) were monitored through the duration of both applications. […]
The inoculum used in this study was prepared from three reference strains of Salmonella: S. Infantis (Reference Strain ID: ATCC 51741), S. Typhimurium (Reference Strain ID: ATCC 13311), and S. Enteritidis (Reference Strain ID: ATCC 13076). […] Colonies from each strain were placed into individual tubes of buffered peptone water (BPW) determined using a spectrophotometer (ThermoFisher Scientific, 1700/0512). […] Post incubation, colonies were counted, and log transformed reported. […]
Prior to inoculation, the average weight of the poultry thighs used in this study was determined to be 150 grams. […]

[1] = Poultry chiller tank: residual decay and odor of antimicrobial baths; format: physicochemical
Method: as §1, with “Both applications targeted a pH>8.5 to simulate the intentional alkalinity of chillers in poultry processing facilities.” left out
as §2
During the pre-chiller and main chiller treatments, the temperature, pH, and antimicrobial concentrations were monitored and recorded every 10 minutes. […] After incubating, colonies were counted, and log transformed.

## CC(=O)OO [peracetic acid]
Salmonella spp.; main chiller treatment (after pre-chiller), target 75 ppm, untreated main chiller control 4.13
  Recovered average Log10 CFU/g: 3.45 Log10 CFU/g
Salmonella spp.; pre-chiller and main chiller
  difference in antimicrobial effectiveness of peracetic acid and peracetate: No significant difference
Salmonella spp.; pre-chiller treatment, target 150 ppm, untreated 5.46, untreated pre-chiller control 4.76
  Recovered average Log10 CFU/g: 3.65 Log10 CFU/g
[1]; pre-chiller application
  additional antimicrobial required to maintain minimum concentration: 13.0 mL
[1]; red water main chiller application
  additional antimicrobial required to maintain minimum concentration: 26.0 mL
